Columns and labels:
[1] = target: T1, Heat shock protein 75 kDa, mitochondrial (Homo sapiens, UniProt Q12931); test: Inhibition of PU-H71-FITC binding to recombinant wild-type human TRAP1 expressed in Escherichia coli BL21 (DE3) measured after 2 hrs by fluorescence polarization assay
T1 sequence (Q12931 whole entry): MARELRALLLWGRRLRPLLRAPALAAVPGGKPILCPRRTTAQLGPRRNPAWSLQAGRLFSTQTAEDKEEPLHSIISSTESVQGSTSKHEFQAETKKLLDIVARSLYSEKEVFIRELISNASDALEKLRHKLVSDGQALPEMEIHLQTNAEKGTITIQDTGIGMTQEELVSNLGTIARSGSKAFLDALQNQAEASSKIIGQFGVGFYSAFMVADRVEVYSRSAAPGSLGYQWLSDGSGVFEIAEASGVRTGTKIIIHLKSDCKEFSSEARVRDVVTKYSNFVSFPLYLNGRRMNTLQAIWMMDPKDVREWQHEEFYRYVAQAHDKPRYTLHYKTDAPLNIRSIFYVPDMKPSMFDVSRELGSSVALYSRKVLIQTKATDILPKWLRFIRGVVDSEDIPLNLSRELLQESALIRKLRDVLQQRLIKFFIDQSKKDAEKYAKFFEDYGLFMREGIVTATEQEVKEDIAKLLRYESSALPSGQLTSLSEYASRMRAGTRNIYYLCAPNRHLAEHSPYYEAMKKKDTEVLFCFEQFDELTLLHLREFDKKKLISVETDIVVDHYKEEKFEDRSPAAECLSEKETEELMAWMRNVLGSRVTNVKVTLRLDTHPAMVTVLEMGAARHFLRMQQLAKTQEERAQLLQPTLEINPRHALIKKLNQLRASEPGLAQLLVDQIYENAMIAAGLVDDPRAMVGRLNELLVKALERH

Heat shock protein HSP90 [2] = target: T2, Heat shock protein HSP90 (Homo sapiens, UniProt P07900+P08238); test: Inhibition of HSP90 in human PC3 cells assessed as change in Cdk4 expression at 5 uM measured after 2 to 12 hrs by Western blot analysis; assay type: cell-based; settings: pc-3, 5 µM
Heat shock protein HSP90 [3] = target: T2, Heat shock protein HSP90; test: Inhibition of HSP90 in human PC3 cells assessed as change in Chk1 expression at 5 uM measured after 2 to 12 hrs by Western blot analysis; assay type: cell-based; settings: pc-3, 5 µM
Heat shock protein HSP90 [4] = target: T2, Heat shock protein HSP90; test: Inhibition of HSP90 in human PC3 cells at 5 uM measured after 2 to 12 hrs by Western blot analysis; assay type: cell-based; settings: pc-3, 5 µM
Heat shock protein HSP90 [5] = target: T2, Heat shock protein HSP90; test: Inhibition of HSP90 in human PC3 cells assessed as change in AKT expression at 5 uM measured after 2 to 12 hrs by Western blot analysis; assay type: cell-based; settings: pc-3, 5 µM
Heat shock protein HSP90 [6] = target: T2, Heat shock protein HSP90; test: Inhibition of HSP90 in human PC3 cells assessed as change in Hsp70 expression at 5 uM measured after 2 to 12 hrs by Western blot analysis; assay type: cell-based; settings: pc-3, 5 µM
Hepatocyte = test: Cytotoxicity against mouse hepatocytes assessed as reduction in cell viability up to 3 uM measured after 24 hrs by MTT assay; assay type: cell-based

SMILES | IC50 [1] | inhibition (INH) (Heat shock protein HSP90 [2]) | inhibition (INH) (Heat shock protein HSP90 [3]) | inhibition (INH) (Heat shock protein HSP90 [4]) | inhibition (INH) (Heat shock protein HSP90 [5]) | inhibition (INH) (Heat shock protein HSP90 [6]) | Activity (Hepatocyte)
Nc1ncnc2c1nc(Sc1cc3c(cc1I)OCO3)n2CCCCCCCC[P+](c1ccccc1)(c1ccccc1)c1ccccc1 | 872 nM | – | – | – | – | – | –
Nc1ncnc2c1nc(Sc1cc3c(cc1I)OCO3)n2CCCCCCCCCC[P+](c1ccccc1)(c1ccccc1)c1ccccc1.[Br-] | 1880 nM | Not Active | Not Active | Not Active | Not Active | Not Active | Non-Toxic
Nc1ncnc2c1nc(Sc1cc3c(cc1I)OCO3)n2CCCCCC[P+](c1ccccc1)(c1ccccc1)c1ccccc1 | 794 nM | – | – | – | – | – | –
